Biological target: T1, human H3R (Homo sapiens, UniProt Q9Y5N1)
T1 construct: expressed in transfected cells; host or cells: CHO cells
Assay: Binding assay with 3H-(R)α-methylhistamine (competition binding)
Settings: competition binding vs 3H(R)α-methylhistamine (1 nM), membrane of the human H3R-CHO cell line; Ki calculated from IC50 by Cheng-Prusoff equation
Protocol: Binding Assay with ^3H—(R)α-methylhistamine
Saturation binding experiments were performed using HR3-CHO membranes prepared as described in Takahashi, K, Tokita, S., Kotani, H. (2003) J. Pharmacol. Exp. Therapeutics 307, 213-218.
An appropriate amount of membrane (60 to 80 μg protein/well) was incubated with increasing concentrations of ^3H(R)α-Methylhistamine di-hydrochloride (0.10 to 10 nM). Non specific binding was determined using a 200 fold excess of cold (R)α-methyl-histamine dihydrobromide (500 nM final concentration). The incubation was carried out at room temperature (in deep-well plates shaking for three hours). The final volume in each well was 250 μl. The incubation was followed by rapid filtration on GF/B filters (pre-soaked with 100 μl of 0.5% PEI in Tris 50 mM shaking at 200 rpm for two hours). The filtration was made using a cell-harvester and the filter plates were then washed five times with ice cold washing buffer containing 0.5 M NaCl. After harvesting, the plates were dried at 55° C. for 60 min, then scintillation fluid (Microscint 40, 40 microl in each well) was added and the amount of radioactivity on the filter was determined in Packard top-counter after shaking the plates for two hours at 200 rpm at room temperature.
Binding Buffer: 50 mM Tris-HCl pH 7.4 and 5 mM MgCl2×6H2O pH 7.4. Washing Buffer: 50 mM Tris-HCl pH 7.4 and 5 mM MgCl2×6H2O and 0.5 M NaCl pH 7.4.
Indirect measurement of affinity of H3R inverse agonists: twelve increasing concentrations (ranging from 10 μM to 0.3 nM) of the selected compounds were always tested in competition binding experiments using membrane of the human H3R—CHO cell line. […]
All compounds were tested at a single concentration in duplicate. […] Ki's were calculated from IC50 based on Cheng-Prusoff equation (Cheng, Y, Prusoff, W H (1973) Biochem Pharmacol 22, 3099-3108): Ki=IC50/[1+D/Kd] wherein D is the concentration of the radioligand and Kd is the binding constant for the radioligand binding to the receptor under the conditions used in the competition experiment.

T1 sequence (Q9Y5N1 whole entry): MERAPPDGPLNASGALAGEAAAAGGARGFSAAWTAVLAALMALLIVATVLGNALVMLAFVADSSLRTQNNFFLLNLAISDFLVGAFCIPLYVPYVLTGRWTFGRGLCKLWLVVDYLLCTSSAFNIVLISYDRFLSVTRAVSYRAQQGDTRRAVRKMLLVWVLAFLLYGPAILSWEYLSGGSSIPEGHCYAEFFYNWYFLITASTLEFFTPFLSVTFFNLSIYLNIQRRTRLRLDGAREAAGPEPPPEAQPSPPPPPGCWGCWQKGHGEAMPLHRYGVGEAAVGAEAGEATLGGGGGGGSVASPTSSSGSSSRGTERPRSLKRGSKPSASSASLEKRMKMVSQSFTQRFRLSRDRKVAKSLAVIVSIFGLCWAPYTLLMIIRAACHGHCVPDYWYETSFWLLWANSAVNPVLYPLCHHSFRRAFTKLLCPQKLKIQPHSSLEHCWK

Row | Structure (SMILES) | Ki
1 | CCN1CCC(n2ccc3cc(C(=O)N4CCN(C5CCCC5)CC4)ccc32)C1 (stereo not drawn) [Example 6, (4-cyclopentyl-piperazin-1-yl)-[1-(1-ethyl-pyrrolidin-3-yl)-1H-indol-5-yl]-methanone] | 5.9 nM
2 | CC(C)N1CCN(C(=O)c2ccc3c(ccn3CCCN3CCCCC3C)c2)CC1 (stereo not drawn) [Example 59, (4-isopropyl-piperazin-1-yl)-{1-[3-(2-methyl-piperidin-1-yl)-propyl]-1H-indol-5-yl}-methanone] | 15.4 nM
3 | O=C(c1ccc2c(ccn2CC2CCCN(Cc3ccccc3)C2)c1)N1CCN(C2CCCC2)CC1 (stereo not drawn) [Example 11, [1-(1-benzyl-piperidin-3-ylmethyl)-1H-indol-5-yl]-(4-cyclopentyl-piperazin-1-yl)-methanone] | 12.1 nM

From patent publication US7432255B2, “1H-indol-5-yl-piperazin-1-yl-methanone derivatives” (Hoffmann-La Roche Inc., priority 2006, dated 2008)
